Biological target: human M3R (M3 muscarinic acetylcholine receptor) (Homo sapiens, UniProt P20309)
Assay: cell-based

Sequence of human M3R (M3 muscarinic acetylcholine receptor) (P20309 whole entry): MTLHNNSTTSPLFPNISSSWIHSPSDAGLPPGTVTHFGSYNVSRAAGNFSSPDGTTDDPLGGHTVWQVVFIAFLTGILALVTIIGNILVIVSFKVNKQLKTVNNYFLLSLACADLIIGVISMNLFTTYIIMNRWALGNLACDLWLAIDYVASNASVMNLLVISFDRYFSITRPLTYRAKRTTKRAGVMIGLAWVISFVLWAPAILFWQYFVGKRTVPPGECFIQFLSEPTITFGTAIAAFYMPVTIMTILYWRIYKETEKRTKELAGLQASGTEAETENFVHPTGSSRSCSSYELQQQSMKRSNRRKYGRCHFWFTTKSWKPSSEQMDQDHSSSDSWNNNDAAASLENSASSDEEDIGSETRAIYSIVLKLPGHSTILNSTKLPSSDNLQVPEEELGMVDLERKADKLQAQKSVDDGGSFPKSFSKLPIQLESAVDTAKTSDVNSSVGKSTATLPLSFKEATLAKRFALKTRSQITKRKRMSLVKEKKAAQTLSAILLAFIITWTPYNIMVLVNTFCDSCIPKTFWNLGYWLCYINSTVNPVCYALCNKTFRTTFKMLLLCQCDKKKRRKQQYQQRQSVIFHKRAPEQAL

## C[N+](C)(C)CC#CCN1CCCC1=O [Oxotremorine-M]
  EC50: 12.6 nM
